Results published in ChEMBL document CHEMBL4627331 (Bioorg Med Chem Lett, 2020).

What was measured:
[1] = target: Cholinesterase (Equus caballus, UniProt P81908)
Description: Inhibition of equine BuchE using butyrylthiocholine as substrate by Ellman's method

[2] = target: acetylcholinesterase (AChE) (Electrophorus electricus, UniProt O42275); test: Inhibition of electric eel AchE at 100 uM using acetylthiocholine as substrate by Ellman's method relative to control; details: electric eel AChE enzyme, probe acetylthiocholine
[3] = target: Acetylcholinesterase (Electrophorus electricus, UniProt O42275); test: Inhibition of electric eel AchE using acetylthiocholine as substrate by Ellman's method
Acetylcholinesterase (Electrophorus electricus, UniProt O42275), sequence (O42275 whole entry): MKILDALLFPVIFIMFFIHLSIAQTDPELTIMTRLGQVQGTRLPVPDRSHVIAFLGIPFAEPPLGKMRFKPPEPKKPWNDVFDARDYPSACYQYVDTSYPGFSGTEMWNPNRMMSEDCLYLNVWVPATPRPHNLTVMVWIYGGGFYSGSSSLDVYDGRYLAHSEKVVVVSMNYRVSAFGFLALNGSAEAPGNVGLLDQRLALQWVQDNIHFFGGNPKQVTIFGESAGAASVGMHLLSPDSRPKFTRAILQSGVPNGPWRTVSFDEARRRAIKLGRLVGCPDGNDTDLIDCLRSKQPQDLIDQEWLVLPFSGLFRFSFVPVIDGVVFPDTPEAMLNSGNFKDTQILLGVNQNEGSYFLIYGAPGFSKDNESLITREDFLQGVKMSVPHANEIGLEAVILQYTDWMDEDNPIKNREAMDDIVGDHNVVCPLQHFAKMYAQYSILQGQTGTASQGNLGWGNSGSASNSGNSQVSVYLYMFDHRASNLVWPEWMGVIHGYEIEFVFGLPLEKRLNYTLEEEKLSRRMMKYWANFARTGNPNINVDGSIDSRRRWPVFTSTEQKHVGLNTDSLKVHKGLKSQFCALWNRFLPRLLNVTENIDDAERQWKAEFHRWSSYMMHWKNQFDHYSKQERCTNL

[4] = target: Acetylcholinesterase (Homo sapiens, UniProt P22303); test: Inhibition of human AchE
Acetylcholinesterase (Homo sapiens, UniProt P22303), sequence (P22303 whole entry): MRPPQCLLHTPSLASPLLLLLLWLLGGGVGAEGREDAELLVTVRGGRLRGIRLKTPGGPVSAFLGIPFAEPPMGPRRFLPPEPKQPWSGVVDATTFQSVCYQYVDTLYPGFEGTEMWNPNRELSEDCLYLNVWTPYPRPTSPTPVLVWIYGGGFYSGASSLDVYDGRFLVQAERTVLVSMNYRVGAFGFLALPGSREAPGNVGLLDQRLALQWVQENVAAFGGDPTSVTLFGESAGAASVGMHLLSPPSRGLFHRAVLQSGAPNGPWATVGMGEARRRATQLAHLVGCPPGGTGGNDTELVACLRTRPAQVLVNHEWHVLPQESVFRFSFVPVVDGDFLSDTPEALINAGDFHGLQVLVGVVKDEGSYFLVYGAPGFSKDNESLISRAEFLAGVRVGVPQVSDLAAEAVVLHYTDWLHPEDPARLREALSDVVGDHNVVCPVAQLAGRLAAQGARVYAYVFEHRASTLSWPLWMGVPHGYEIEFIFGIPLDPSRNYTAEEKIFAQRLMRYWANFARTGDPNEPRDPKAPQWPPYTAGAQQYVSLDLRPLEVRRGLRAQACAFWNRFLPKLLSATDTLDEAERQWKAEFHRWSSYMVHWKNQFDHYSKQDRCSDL

[5] = target: Cholinesterase (Homo sapiens, UniProt P06276); test: Inhibition of human BuchE
Cholinesterase (Homo sapiens, UniProt P06276), sequence (P06276 whole entry): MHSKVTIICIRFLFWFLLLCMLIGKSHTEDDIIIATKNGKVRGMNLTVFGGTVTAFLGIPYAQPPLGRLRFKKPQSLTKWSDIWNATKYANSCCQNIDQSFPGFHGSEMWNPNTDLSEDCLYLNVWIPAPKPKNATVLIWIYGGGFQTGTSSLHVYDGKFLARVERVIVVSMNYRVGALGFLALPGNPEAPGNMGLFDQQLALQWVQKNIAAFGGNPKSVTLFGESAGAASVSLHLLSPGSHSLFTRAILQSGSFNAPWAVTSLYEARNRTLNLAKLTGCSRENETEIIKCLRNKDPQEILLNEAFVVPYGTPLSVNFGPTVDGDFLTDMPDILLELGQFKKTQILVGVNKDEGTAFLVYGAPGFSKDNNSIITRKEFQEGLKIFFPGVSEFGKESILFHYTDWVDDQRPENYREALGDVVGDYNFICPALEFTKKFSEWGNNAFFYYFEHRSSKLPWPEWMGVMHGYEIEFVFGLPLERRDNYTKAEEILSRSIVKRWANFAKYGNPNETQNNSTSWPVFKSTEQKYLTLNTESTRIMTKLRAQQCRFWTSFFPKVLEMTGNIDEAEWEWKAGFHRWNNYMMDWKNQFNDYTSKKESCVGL

[6] = Selectivity index, ratio of IC50 for equine BuchE using butyrylthiocholine as substrate by Ellman's method to IC50 for human BuchE
[7] = Cytotoxicity against human SH-SY5Y cells by MTT assay; format: cell-based
[8] = target: acetylcholinesterase (AChE) (Homo sapiens, UniProt P22303); test: Inhibition of human AchE at 100 uM relative to control; details: human AChE enzyme
acetylcholinesterase (AChE) (Homo sapiens, UniProt P22303), sequence (P22303 whole entry): as the sequence (P22303 whole entry) above

Cholinesterase (Equus caballus, UniProt P81908), sequence (P81908 whole entry): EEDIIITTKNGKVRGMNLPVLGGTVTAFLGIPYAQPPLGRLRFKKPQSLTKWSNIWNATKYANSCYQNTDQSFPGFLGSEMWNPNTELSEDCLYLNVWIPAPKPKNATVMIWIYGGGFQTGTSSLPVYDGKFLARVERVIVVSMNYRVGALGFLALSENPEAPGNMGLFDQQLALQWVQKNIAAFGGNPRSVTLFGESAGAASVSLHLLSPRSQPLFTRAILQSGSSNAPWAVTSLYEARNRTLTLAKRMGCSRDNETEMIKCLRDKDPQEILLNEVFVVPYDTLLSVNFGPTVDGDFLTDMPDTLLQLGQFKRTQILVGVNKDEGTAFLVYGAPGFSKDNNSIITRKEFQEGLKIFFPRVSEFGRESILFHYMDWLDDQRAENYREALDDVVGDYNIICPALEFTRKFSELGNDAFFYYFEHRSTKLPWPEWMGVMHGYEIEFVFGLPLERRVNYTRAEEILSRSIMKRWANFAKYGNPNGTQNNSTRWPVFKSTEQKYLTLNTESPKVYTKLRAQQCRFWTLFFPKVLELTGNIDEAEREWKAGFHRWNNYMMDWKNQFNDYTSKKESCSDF
acetylcholinesterase (AChE) (Electrophorus electricus, UniProt O42275), sequence (O42275 whole entry): as the sequence (O42275 whole entry) above

`COc1cc(C2C3=C(CCCC3=O)NC3=C2C(=O)CCC3)ccc1OS(=O)(=O)c1ccc(C)cc1` gave an IC50 [1] of 959 nM, an inhibition at 100 µM [2] of 15% and an IC50 [3] of over 100 µM.
In the case of `COc1cc(C2C3=C(CCCC3=O)N(C)C3=C2C(=O)CCC3)ccc1OCc1ccc(F)cc1`, the IC50 [1] is reported as 2440 nM, the inhibition at 100 µM [2] is reported as 33% and the IC50 [3] is reported as over 100 µM.
In the case of `COc1cc(C2C3=C(CCCC3=O)NC3=C2C(=O)CCC3)ccc1OCc1ccc(F)cc1`, the IC50 [4] is reported as 125 µM, the IC50 [5] is reported as 98 nM and the Ratio IC50 [6] is reported as 2.5. The IC50 [1] was 242 nM, the inhibition at 100 µM [2] was 27% and the CC50 [7] was at least 100 µM. The IC50 [3] was over 100 µM.
With `O=C1CCCC2=C1C(c1ccc(OCc3ccccc3)c(Br)c1)C1=C(CCCC1=O)N2` the IC50 [1] was 633 nM, the inhibition at 100 µM [2] was 14% and the IC50 [3] was over 100 µM.
With `O=C1CCCC2=C1C(c1ccc(OCc3ccccc3)cc1)C1=C(CCCC1=O)N2` the IC50 [1] was 6010 nM, the inhibition at 100 µM [2] was 24% and the IC50 [3] was over 100 µM.
`CN1C2=C(C(=O)CCC2)C(c2ccc(OCc3ccc(Cl)cc3)c(Cl)c2)C2=C1CCCC2=O` gave an IC50 [1] of 1660 nM, an inhibition at 100 µM [2] of 23% and an IC50 [3] of over 100 µM.
Work on `O=C1CCCC2=C1C(c1ccc(OCc3cccc(F)c3)c(Br)c1)C1=C(CCCC1=O)N2` yielded an IC50 [4] of over 100 µM, an IC50 [5] of 142 nM and a Ratio IC50 [6] of 2.5. For the same molecule, the IC50 [1] was 388 nM, the inhibition at 100 µM [2] was 22% and the inhibition at 100 µM [8] was 39%. For the same molecule, the IC50 [3] was over 100 µM.
Molecule `CCOc1cc(C2C3=C(CCCC3=O)NC3=C2C(=O)CCC3)ccc1OCc1ccccc1` has an IC50 [1] of 752 nM, an inhibition at 100 µM [2] of 19% and an IC50 [3] of over 100 µM.
